# Measurements as given in US20230293412A1, “SHAMPOOS AND METHODS OF PREPARING AND USING THE SAME” (SHANDONG BENZHEN COSMETICS CO., LTD, priority 2020, published 2023).
# Test system: not listed separately
# Assay: Surface tension of surfactants diluted 200 and 6000 times
# Assay type: physicochemical
# Settings: surfactant diluted 200 times with triple distilled water, 25° C.
# Experimental: We classify surfactants into three types: anionic surfactants, zwitterionic surfactants, and nonionic surfactants. Experimental studies on the surface tension and acute toxicity of fish were conducted on the above-mentioned main surfactants and other kinds of surfactants used in shampoo, bath and other care products.
# (§1) Test method. The experimental environment is at a constant temperature of 25° C., the surfactants is diluted 200 and 6000 times with triple distilled water. The surface tension is tested by JY-200C full-automatic interfacial tensiometer, referring to (GB5545 Surfactant Determination of surface tension by pulling up liquid film). The fish acute toxicity test is carried out tin the aqueous solution diluted 6000 times with surfactant, referencing to (GB/T 21281-2007 fish acute toxicity test classification test method of hazardous chemicals).
row,Molecule,Surface tension 1:200
1,"CCCCCCCCCCCC(=O)N(C)CC(=O)[O-].[Na+] [Shampoo 4202, Sodium lauroyl sarcosinate (30%)]",27.9 mN/m
2,"CCCCCCCCCCCCOS(=O)(=O)[O-].[Na+] [Shampoo K12, Sodium lauryl sulfate]",35.0 mN/m
3,"CCCCCCCCCCCCOS(=O)(=O)O.N [Shampoo K12-A, ammonium lauryl sulfate]",26.7 mN/m
4,Alkyl glycoside (C8-C10) [APG1],28.3 mN/m
5,Alkyl glycoside (C12-C14) [APG2],28.2 mN/m
6,Alkyl glycoside (import) [APGj],28.1 mN/m
7,Coconut oil fatty acid diethanolamide [Shampoo 6501],26.0 mN/m
8,Fatty alcohol polyoxyethylene ether [AEO-3],27.2 mN/m
9,Fatty alcohol polyoxyethylene ether [AEO-7],27.6 mN/m
10,Fatty alcohol polyoxyethylene ether [AEO-9],30.2 mN/m
11,Imidazoline (import) [ZMLj],28.5 mN/m
12,Imidazoline [MZL],29.1 mN/m
13,Lauramide propyl amine oxide [Shampoo 4501],30.5 mN/m
14,Methyl glucose dioleate [DOE-120],42.6 mN/m
15,Sodium Cocoyl Isethionate-85 [SCI-85],30.6 mN/m
16,Sodium dodecyl ether phosphate [Shampoo 1211],35.2 mN/m
17,Sodium secondary alkyl sulfonate [SAS],31.3 mN/m
18,Sodium α-alkenyl sulfonate [AOS],31.8 mN/m
19,Sulfobetaine [ASB],35.3 mN/m
20,ammonium laureth ether sulfate [AES-A],34.9 mN/m
21,cocamidopropyl betaine [CAB],31.3 mN/m
22,sodium laureth ether sulfate [AES],36.4 mN/m

# Same assay, conditions: surfactant diluted 6000 times with triple distilled water, 25° C.
row,Molecule,Surface tension 1:6000
1,"CCCCCCCCCCCC(=O)N(C)CC(=O)[O-].[Na+] [Shampoo 4202, Sodium lauroyl sarcosinate (30%)]",64.8 mN/m
2,"CCCCCCCCCCCCOS(=O)(=O)[O-].[Na+] [Shampoo K12, Sodium lauryl sulfate]",40.8 mN/m
3,"CCCCCCCCCCCCOS(=O)(=O)O.N [Shampoo K12-A, ammonium lauryl sulfate]",38.9 mN/m
4,Alkyl glycoside (C8-C10) [APG1],47.3 mN/m
5,Alkyl glycoside (C12-C14) [APG2],28.5 mN/m
6,Alkyl glycoside (import) [APGj],28.6 mN/m
7,Coconut oil fatty acid diethanolamide [Shampoo 6501],27.6 mN/m
8,Fatty alcohol polyoxyethylene ether [AEO-3],27.3 mN/m
9,Fatty alcohol polyoxyethylene ether [AEO-7],29.3 mN/m
10,Fatty alcohol polyoxyethylene ether [AEO-9],30.4 mN/m
11,Imidazoline (import) [ZMLj],31.3 mN/m
12,Imidazoline [MZL],45.5 mN/m
13,Lauramide propyl amine oxide [Shampoo 4501],31.2 mN/m
14,Methyl glucose dioleate [DOE-120],49.4 mN/m
15,Sodium Cocoyl Isethionate-85 [SCI-85],42.8 mN/m
16,Sodium dodecyl ether phosphate [Shampoo 1211],40.5 mN/m
17,Sodium secondary alkyl sulfonate [SAS],41.5 mN/m
18,Sodium α-alkenyl sulfonate [AOS],41.8 mN/m
19,Sulfobetaine [ASB],47.5 mN/m
20,ammonium laureth ether sulfate [AES-A],32.9 mN/m
21,cocamidopropyl betaine [CAB],32.4 mN/m
22,sodium laureth ether sulfate [AES],36.2 mN/m

# Test system: fish
# Assay: Fish acute toxicity test of surfactants
# Assay type: in vivo
# Settings: fish in aqueous solution of surfactant diluted 6000 times, 25° C.
# Experimental: as §1
row,Molecule,survival time
1,"CCCCCCCCCCCC(=O)N(C)CC(=O)[O-].[Na+] [Shampoo 4202, Sodium lauroyl sarcosinate (30%)]",>1440 min
2,Alkyl glycoside (C8-C10) [APG1],33 min
3,Alkyl glycoside (C12-C14) [APG2],25 min
4,Alkyl glycoside (import) [APGj],25 min
5,Coconut oil fatty acid diethanolamide [Shampoo 6501],44 min
6,Fatty alcohol polyoxyethylene ether [AEO-3],27 min
7,Fatty alcohol polyoxyethylene ether [AEO-7],21 min
8,Fatty alcohol polyoxyethylene ether [AEO-9],18 min
9,Imidazoline (import) [ZMLj],64 min
10,Imidazoline [MZL],134 min
11,Lauramide propyl amine oxide [Shampoo 4501],15 min
12,Methyl glucose dioleate [DOE-120],>1440 min
13,Sodium Cocoyl Isethionate-85 [SCI-85],24 min
14,Sodium dodecyl ether phosphate [Shampoo 1211],284 min
15,Sodium secondary alkyl sulfonate [SAS],41 min
16,Sulfobetaine [ASB],42 min
17,cocamidopropyl betaine [CAB],27 min

# Same assay, conditions: fish in surfactant solution at 1:6000
row,Molecule,fish survival
1,"CCCCCCCCCCCC(=O)N(C)CC(=O)[O-].[Na+] [Shampoo 4202, Sodium lauroyl sarcosinate (30%)]",24 h
2,Methyl glucose dioleate [DOE-120],24 h
